For orientation: IC50 means the concentration needed to halve the response being measured.

SMILES strings stand for the structures. Some results are limits rather than exact numbers.

This is an account of results in patent US12202835B2, “Substituted aromatic ring-linked dioxinoquinazolines and dioxinoquinolines as kinase inhibitors” (BEIJING SCITECH-MQ PHARMACEUTICALS LIMITED, priority 2018, dated 2025).

Test [1] has as its target TRKA kinase (Homo sapiens (Human), UniProt P04629). Kind of test: Assay of small molecular compounds for inhibiting the activity of TRKA kinase (LANCE TR-FRET). The test is classed as biochemical. The procedure, abridged: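 TRKA (supplied as 2 nM 2× solution) was pre-reacted with compounds for 5 min at room temperature before a 4× ULight-TK peptide/ATP mix (400 nM/40 μM) started the 60-min dark reaction at 1% DMSO. After stop and 60-min detection, TR-FRET was read.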
(Time-resolved FRET reads energy transfer from a long-lived donor to a nearby acceptor.)

For test [2], the target named is VEGFR-2 kinase (Homo sapiens (Human), UniProt P35968). Kind of test: Assay of small molecular compounds for inhibiting the activity of VEGFR-2 kinase (LANCE TR-FRET). The test is classed as biochemical. The following applies: read-out: VEGFR2 IC50. The procedure, abridged: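 LANCE TR-FRET with human VEGFR-2 (2× stock 0.5 nM) preincubated 30 min with compound (final 2500 to 0.042 nM, 11-point 3-fold), then ULight-JAK-1 (Tyr1023) peptide/ATP added (4× stocks 200 nM/40 μM). Reaction 60 min room temperature, 4% DMSO; IC50 from inhibition-rate curve.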
VEGFR-2 kinase, sequence (P35968 20-1356): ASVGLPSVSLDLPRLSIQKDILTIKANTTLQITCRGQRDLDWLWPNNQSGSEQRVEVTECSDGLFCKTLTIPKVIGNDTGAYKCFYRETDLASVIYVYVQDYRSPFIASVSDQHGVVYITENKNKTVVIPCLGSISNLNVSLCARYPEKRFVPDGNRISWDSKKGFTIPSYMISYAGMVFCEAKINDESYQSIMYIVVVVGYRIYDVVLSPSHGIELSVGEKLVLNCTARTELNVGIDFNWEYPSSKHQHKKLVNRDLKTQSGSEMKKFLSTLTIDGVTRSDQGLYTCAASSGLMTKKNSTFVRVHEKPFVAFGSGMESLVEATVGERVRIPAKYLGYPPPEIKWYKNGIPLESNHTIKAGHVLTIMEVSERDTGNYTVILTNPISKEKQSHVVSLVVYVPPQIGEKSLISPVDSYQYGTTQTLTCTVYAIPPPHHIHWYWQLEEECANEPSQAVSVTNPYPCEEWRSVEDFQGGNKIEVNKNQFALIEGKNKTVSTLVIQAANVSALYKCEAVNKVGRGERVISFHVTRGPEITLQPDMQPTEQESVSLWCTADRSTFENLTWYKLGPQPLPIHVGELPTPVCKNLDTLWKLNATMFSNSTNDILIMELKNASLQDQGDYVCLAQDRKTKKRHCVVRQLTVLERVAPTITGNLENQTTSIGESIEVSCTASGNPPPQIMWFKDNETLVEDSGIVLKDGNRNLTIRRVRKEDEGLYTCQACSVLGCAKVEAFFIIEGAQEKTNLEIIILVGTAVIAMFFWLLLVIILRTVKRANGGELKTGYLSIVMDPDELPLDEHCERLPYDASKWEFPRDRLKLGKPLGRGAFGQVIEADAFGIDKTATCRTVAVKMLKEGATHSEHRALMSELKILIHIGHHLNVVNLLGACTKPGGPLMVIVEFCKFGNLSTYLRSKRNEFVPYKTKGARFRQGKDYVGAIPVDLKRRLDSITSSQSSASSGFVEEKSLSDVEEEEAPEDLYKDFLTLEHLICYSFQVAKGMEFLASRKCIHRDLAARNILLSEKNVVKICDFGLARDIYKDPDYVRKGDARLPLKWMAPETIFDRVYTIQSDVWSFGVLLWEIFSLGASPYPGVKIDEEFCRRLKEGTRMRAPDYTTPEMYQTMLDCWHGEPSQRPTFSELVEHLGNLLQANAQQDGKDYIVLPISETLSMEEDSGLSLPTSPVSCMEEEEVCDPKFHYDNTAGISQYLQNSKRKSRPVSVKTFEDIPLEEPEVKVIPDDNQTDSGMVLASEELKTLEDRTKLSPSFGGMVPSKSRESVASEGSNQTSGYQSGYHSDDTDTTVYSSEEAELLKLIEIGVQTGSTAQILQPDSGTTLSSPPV

Test [3] deals with Ba/F3 LMNA-NTRK1 cells. As to the kind of experiment: Assay for inhibiting the proliferation of Ba/F3 LMNA-NTRK1 cells (CCK-8). The test is classed as cell-based. The following applies: Mus musculus, BaF3. An outline of the steps:
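Viability was read as absorbance at 450 nm following 1–2 h CCK-8 incubation at 37 °C, relative to control and blank wells.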

TRKA kinase, sequence (P04629 33-796): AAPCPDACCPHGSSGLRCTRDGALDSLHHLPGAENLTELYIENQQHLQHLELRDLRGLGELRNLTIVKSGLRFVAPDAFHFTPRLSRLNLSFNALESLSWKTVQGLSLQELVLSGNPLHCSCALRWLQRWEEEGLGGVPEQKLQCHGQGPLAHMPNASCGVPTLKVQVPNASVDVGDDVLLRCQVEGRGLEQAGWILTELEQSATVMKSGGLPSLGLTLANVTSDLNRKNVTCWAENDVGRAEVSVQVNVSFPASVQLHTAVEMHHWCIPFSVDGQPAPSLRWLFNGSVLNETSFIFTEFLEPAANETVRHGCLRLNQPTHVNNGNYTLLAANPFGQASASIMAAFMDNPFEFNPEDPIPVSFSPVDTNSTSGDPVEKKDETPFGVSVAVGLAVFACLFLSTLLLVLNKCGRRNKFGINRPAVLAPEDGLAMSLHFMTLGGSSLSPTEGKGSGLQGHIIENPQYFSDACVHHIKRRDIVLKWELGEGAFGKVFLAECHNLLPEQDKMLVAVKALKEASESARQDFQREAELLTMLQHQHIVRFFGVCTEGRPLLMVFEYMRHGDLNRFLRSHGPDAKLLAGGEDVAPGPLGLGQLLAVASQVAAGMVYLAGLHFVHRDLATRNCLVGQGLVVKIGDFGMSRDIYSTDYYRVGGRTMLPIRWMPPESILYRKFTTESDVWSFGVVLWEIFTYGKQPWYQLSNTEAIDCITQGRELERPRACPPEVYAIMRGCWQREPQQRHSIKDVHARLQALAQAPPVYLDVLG

In the case of `CCOc1ccn(-c2ccc(F)cc2)c(=O)c1C(=O)Nc1ccc(Oc2ccnc3cc(OCC(C)(C)O)c4c(c23)OCCO4)cc1Cl` [Example 142, N-(2-chloro-4-((5-(2-hydroxy-2-methylpropoxy)-2,3-dihydro-[1,4]dioxino[2,3-f]quinolin-10-yl)oxy)phenyl)-1-(4-fluorophenyl)-4-ethoxy-2-oxo-1,2-dihydropyridine-3-carboxamide], the IC50 was below 0.05 µM in test [1], 0.05 to 0.5 µM in test [2] and below 0.05 µM in test [3].
Consider `O=C(Nc1ccc(Oc2ccnc3cc(OCCCN4CCOCC4)c4c(c23)OCCO4)cc1Cl)c1cccn(-c2ccc(F)cc2)c1=O` [Example 143, N-(2-chloro-4-((5-(3-morpholinopropoxy)-2,3-dihydro-[1,4]dioxino[2,3-f]quinolin-10-yl)oxy)phenyl)-1-(4-fluorophenyl)-2-oxo-1,2-dihydropyridine-3-carboxamide], for which the IC50 in test [1] was below 0.05 µM; in test [2], at most 0.05 µM; in test [3], below 0.05 µM.
As to `COc1cc2nccc(Oc3ccc(NC(=O)c4cn(C)c(=O)n(-c5ccc(F)cc5)c4=O)cc3)c2c2c1OCCO2` [Example 145, N-(4-((5-methoxy-2,3-dihydro-[1,4]dioxino[2,3-f]quinolin-10-yl)oxy)phenyl)-3-(4-fluorophenyl)-1-methyl-2,4-dioxo-1,2,3,4-tetrahydropyrimidine-5-carboxamide], the IC50 in test [1] was below 0.05 µM; in test [2], 0.5 to 5 µM; in test [3], below 0.05 µM.
`CCn1cc(C(=O)Nc2ccc(Oc3ccnc4cc(OC)c5c(c34)OCCO5)cc2)c(=O)n(-c2ccc(F)cc2)c1=O` [Example 146, N-(4-((5-methoxy-2,3-dihydro-[1,4]dioxino[2,3-f]quinolin-10-yl)oxy)phenyl)-3-(4-fluorophenyl)-1-ethyl-2,4-dioxo-1,2,3,4-tetrahydropyrimidine-5-carboxamide]: the IC50 in test [1] was below 0.05 µM; in test [2], above 5 µM; in test [3], below 0.05 µM.
In the case of `COCCOc1cc2nccc(Oc3ccc(NC(=O)c4cn(C)c(=O)n(-c5ccc(F)cc5)c4=O)cc3)c2c2c1OCCO2` [Example 147, N-(4-((5-(2-methoxyethoxy)-2,3-dihydro-[1,4]dioxino[2,3-f]quinolin-10-yl)oxy)phenyl)-3-(4-fluorophenyl)-1-methyl-2,4-dioxo-1,2,3,4-tetrahydropyrimidine-5-carboxamide], the values for the IC50 in test [1], in test [2] and in test [3] were below 0.05 µM, 0.05 to 0.5 µM and below 0.05 µM, respectively.
Regarding `CCn1cc(C(=O)Nc2ccc(Oc3ccnc4cc(OCCOC)c5c(c34)OCCO5)cc2)c(=O)n(-c2ccc(F)cc2)c1=O` [Example 148, N-(4-((5-(2-methoxyethoxy)-2,3-dihydro-[1,4]dioxino[2,3-f]quinolin-10-yl)oxy)phenyl)-3-(4-fluorophenyl)-1-ethyl-2,4-dioxo-1,2,3,4-tetrahydropyrimidine-5-carboxamide], the half-inhibitory concentration (IC50) in test [1] was below 0.05 µM; in test [2], 0.5 to 5 µM; in test [3] it was below 0.05 µM.
Turning to `Cn1cc(C(=O)Nc2ccc(Oc3ccnc4cc(OCC(C)(C)O)c5c(c34)OCCO5)cc2)c(=O)n(-c2ccc(F)cc2)c1=O` [Example 149, N-(4-((5-(2-hydroxy-2-methylpropoxy)-2,3-dihydro-[1,4]dioxino[2,3-f]quinolin-10-yl)oxy)phenyl)-3-(4-fluorophenyl)-1-methyl-2,4-dioxo-1,2,3,4-tetrahydropyrimidine-5-carboxamide], the IC50 is below 0.05 µM in test [1], 0.5 to 5 µM in test [2] and below 0.05 µM in test [3].
For the molecule `CCn1cc(C(=O)Nc2ccc(Oc3ccnc4cc(OCC(C)(C)O)c5c(c34)OCCO5)cc2)c(=O)n(-c2ccc(F)cc2)c1=O` [Example 150, N-(4-((5-(2-hydroxy-2-methylpropoxy)-2,3-dihydro-[1,4]dioxino[2,3-f]quinolin-10-yl)oxy)phenyl)-3-(4-fluorophenyl)-1-ethyl-2,4-dioxo-1,2,3,4-tetrahydropyrimidine-5-carboxamide], the IC50 was below 0.05 µM in test [1], 0.5 to 5 µM in test [2] and below 0.05 µM in test [3].
Take `COc1cc2nccc(Oc3ccc(NC(=O)c4cn(C)c(=O)n(-c5ccc(F)cc5)c4=O)c(F)c3)c2c2c1OCCO2` [Example 153, N-(2-fluoro-4-((5-methoxy-2,3-dihydro-[1,4]dioxino[2,3-f]quinolin-10-yl)oxy)phenyl)-3-(4-fluorophenyl)-1-methyl-2,4-dioxo-1,2,3,4-tetrahydropyrimidine-5-carboxamide]: the IC50 in test [1] was below 0.05 µM; in test [2], 0.5 to 5 µM; in test [3], below 0.05 µM.
On to `COCCOc1cc2nccc(Oc3ccc(NC(=O)c4cn(C)c(=O)n(-c5ccc(F)cc5)c4=O)c(F)c3)c2c2c1OCCO2` [Example 155, N-(2-fluoro-4-((5-(2-methoxyethoxy)-2,3-dihydro-[1,4]dioxino[2,3-f]quinolin-10-yl)oxy)phenyl)-3-(4-fluorophenyl)-1-methyl-2,4-dioxo-1,2,3,4-tetrahydropyrimidine-5-carboxamide], for which the concentration for half-maximal inhibition (IC50) in test [1] was below 0.05 µM; in test [2] it was 0.5 to 5 µM; in test [3], below 0.05 µM.
As to `CCn1cc(C(=O)Nc2ccc(Oc3ccnc4cc(OCCOC)c5c(c34)OCCO5)cc2F)c(=O)n(-c2ccc(F)cc2)c1=O` [Example 156, N-(2-fluoro-4-((5-(2-methoxyethoxy)-2,3-dihydro-[1,4]dioxino[2,3-f]quinolin-10-yl)oxy)phenyl)-3-(4-fluorophenyl)-1-ethyl-2,4-dioxo-1,2,3,4-tetrahydropyrimidine-5-carboxamide], the values for the IC50 in test [1], in test [2] and in test [3] were below 0.05 µM, 0.5 to 5 µM and below 0.05 µM, respectively.
For `Cn1cc(C(=O)Nc2ccc(Oc3ccnc4ccc5c(c34)OCCO5)cc2F)c(=O)n(-c2ccc(F)cc2)c1=O` [Example 162, N-(4-((2,3-dihydro-[1,4]dioxino[2,3-f]quinolin-10-yl)oxy)-2-fluorophenyl)-3-(4-fluorophenyl)-1-methyl-2,4-dioxo-1,2,3,4-tetrahydropyrimidine-5-carboxamide], the concentration for half-maximal inhibition (IC50) in test [1] was below 0.05 µM; in test [2], 0.5 to 5 µM; in test [3], below 0.05 µM.
Regarding `COc1cc2nccc(Oc3cc(C)c(NC(=O)c4cn(C)c(=O)n(-c5ccc(F)cc5)c4=O)cc3F)c2c2c1OCCO2` [Example 177, N-(5-fluoro-4-((5-methoxy-2,3-dihydro-[1,4]dioxino[2,3-f]quinolin-10-yl)oxy)-2-methylphenyl)-3-(4-fluorophenyl)-1-methyl-2,4-dioxo-1,2,3,4-tetrahydropyrimidine-5-carboxamide], the values for the IC50 in test [1], in test [2] and in test [3] were below 0.05 µM, 0.5 to 5 µM and below 0.05 µM, respectively.
With `COCCOc1cc2nccc(Oc3cc(C)c(NC(=O)c4cn(C)c(=O)n(-c5ccc(F)cc5)c4=O)cc3F)c2c2c1OCCO2` [Example 179, N-(5-fluoro-4-((5-(2-methoxyethoxy)-2,3-dihydro-[1,4]dioxino[2,3-f]quinolin-10-yl)oxy)-2-methylphenyl)-3-(4-fluorophenyl)-1-methyl-2,4-dioxo-1,2,3,4-tetrahydropyrimidine-5-carboxamide], the IC50 in test [1] was below 0.05 µM; in test [2], 0.5 to 5 µM; in test [3], below 0.05 µM.
`CCn1cc(C(=O)Nc2cc(F)c(Oc3ccnc4cc(OCCOC)c5c(c34)OCCO5)cc2C)c(=O)n(-c2ccc(F)cc2)c1=O` [Example 180, N-(5-fluoro-4-((5-(2-methoxyethoxy)-2,3-dihydro-[1,4]dioxino[2,3-f]quinolin-10-yl)oxy)-2-methylphenyl)-3-(4-fluorophenyl)-1-ethyl-2,4-dioxo-1,2,3,4-tetrahydropyrimidine-5-carboxamide]: the figures for the IC50 in test [1], in test [2] and in test [3] were below 0.05 µM, 0.5 to 5 µM and below 0.05 µM, respectively.
